Test results: patent US10414811B2, “Protease-resistant lipidated GLP-1 analogs” (MEDIMMUNE LIMITED, priority 2015, dated 2019)
Like-named read-outs stand apart in the source and are kept apart here. Numbered stars: 1 amine (or outer) side, 2 acyl side, 3 side chain; on linkers, the order of the positions; unused ones are H or OH. Square brackets hold non-standard residues; d marks the D form. Side chains are listed from the residue outwards. Peptide text beside a SMILES is read from it. * marks the point of attachment. C18 diacid = O=C(O)CCCCCCCCCCCCCCCCC(=O)*; γGlu = O=C(O)[C@H](CCC(=O)[*:2])N[*:1]; Palmitoyl = CCCCCCCCCCCCCCCC(=O)*; αMeF = C[C@](N)(Cc1ccccc1)C(=O)O; αMeK = C[C@](N)(CCCCN)C(=O)O; αMeS = C[C@](N)(CO)C(=O)O; AEEA = NCCOCCOCC(=O)O; Aib = CC(C)(N)C(=O)O

How the values were obtained:
Assay type in all cases: cell-based
[1] = biological target: T1, human GLP-1 receptor (GLP-1R) (Homo sapiens, UniProt P43220); assay: cAMP assay, human GLP-1R cells
T1 construct: expressed in transfected cells
T1 sequence (P43220 24-463): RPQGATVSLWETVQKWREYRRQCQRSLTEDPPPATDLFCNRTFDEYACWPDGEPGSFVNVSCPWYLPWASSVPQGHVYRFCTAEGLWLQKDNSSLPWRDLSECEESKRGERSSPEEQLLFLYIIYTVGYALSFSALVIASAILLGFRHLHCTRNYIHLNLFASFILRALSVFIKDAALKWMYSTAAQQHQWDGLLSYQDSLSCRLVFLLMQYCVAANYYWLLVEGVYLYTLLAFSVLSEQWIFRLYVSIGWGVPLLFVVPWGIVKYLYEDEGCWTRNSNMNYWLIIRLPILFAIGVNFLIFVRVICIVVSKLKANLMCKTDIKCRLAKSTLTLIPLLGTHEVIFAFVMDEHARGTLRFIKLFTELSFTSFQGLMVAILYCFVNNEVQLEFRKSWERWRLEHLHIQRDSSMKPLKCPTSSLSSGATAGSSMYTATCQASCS
Summary of the method: (§1)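 Peptide-stimulated cAMP measured by two-step HTRF after a 30 min room-temperature incubation with receptor-expressing cells (hGLP-1R, hGIPR at 1×10^5 cells/ml; hGCGR at 2×10^5 cells/ml). Duplicate dilutions; EC50 from 4-parameter logistic fit of % Delta F.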

[2] = biological target: T2, human glucagon receptor (GCGR) (Homo sapiens, UniProt P47871); assay: cAMP assay, human GCGR cells
T2 construct: expressed in transfected cells
T2 sequence (P47871 26-477): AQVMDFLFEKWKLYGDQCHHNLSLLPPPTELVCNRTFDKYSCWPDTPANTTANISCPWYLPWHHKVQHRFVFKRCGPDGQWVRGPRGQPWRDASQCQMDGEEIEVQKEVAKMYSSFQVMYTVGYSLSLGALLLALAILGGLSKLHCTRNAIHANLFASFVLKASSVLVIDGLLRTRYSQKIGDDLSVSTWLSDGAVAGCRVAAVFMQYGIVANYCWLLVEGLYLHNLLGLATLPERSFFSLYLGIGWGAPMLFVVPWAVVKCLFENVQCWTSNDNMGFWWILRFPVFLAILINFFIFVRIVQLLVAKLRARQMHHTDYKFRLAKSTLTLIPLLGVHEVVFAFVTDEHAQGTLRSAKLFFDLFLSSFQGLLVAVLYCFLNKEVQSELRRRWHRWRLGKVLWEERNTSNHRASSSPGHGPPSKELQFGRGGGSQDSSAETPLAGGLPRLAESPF
Summary of the method: as §1

[3] = biological target: T3, human glucose-dependent insulinotropic peptide receptor (GIPR) (Homo sapiens, UniProt P48546); assay: cAMP assay, human GIPR cells
T3 construct: expressed in transfected cells
T3 sequence (P48546 22-466): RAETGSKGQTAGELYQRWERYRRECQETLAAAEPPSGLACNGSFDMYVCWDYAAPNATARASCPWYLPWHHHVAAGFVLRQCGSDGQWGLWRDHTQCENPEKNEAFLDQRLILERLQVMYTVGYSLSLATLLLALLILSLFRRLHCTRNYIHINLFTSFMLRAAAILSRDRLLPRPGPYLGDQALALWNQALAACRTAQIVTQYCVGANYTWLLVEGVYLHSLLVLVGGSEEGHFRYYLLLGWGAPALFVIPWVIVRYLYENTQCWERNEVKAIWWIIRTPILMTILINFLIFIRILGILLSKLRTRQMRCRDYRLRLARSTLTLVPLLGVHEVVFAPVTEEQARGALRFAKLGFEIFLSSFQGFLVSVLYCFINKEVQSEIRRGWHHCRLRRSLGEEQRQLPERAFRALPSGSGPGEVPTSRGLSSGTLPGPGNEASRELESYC
Summary of the method: as §1

[4] = biological target: T4, GLP-1R (INS1e assay) (Rattus norvegicus, UniProt P32301); assay: INS1e assay, cAMP activity at GLP-1R; conditions: mono-lipidated peptides
T4 construct: endogenous in cells; host or cells: INS-1E cells
T4 sequence (P32301 22-463): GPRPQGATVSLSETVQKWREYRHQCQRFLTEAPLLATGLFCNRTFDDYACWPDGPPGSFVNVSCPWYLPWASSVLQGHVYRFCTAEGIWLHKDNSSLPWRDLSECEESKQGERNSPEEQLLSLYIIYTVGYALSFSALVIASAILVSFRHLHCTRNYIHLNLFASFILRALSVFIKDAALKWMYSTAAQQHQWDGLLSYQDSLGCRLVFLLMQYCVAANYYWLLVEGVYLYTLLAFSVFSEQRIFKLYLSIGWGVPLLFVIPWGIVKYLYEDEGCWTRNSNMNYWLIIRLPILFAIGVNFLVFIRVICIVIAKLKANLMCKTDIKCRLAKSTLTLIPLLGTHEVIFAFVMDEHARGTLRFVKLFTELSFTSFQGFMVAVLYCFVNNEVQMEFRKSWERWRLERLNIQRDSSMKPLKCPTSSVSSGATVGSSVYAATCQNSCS
Summary of the method: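 It pairs cAMP-d2 acceptor with anti-cAMP cryptate donor, both prepared 1/20 in conjugate/lysis buffer, applied as a two-step protocol.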

[5] = cAMP assay, first determination (n1), read-out: Primary assay EC50 GLP-1R n1
[6] = cAMP assay, second determination (n2), read-out: Primary assay EC50 GLP-1R n2
[7] = mean of n1 and n2, read-out: Mean pM GLP-1R
[8] = cAMP assay, first determination (n1), read-out: Primary assay EC50 Gluc-R (n1)
[9] = cAMP assay, second determination (n2), read-out: Primary assay EC50 Gluc-R (n2)
[10] = cAMP assay, first determination (n1), read-out: Primary assay EC50 GIP-R (n1)
[11] = cAMP assay, second determination (n2), read-out: Primary assay EC50 GIP-R (n2)
[12] = mean of n1 and n2, read-out: INS1e assay EC50 Mean pM GLP-1R
[13] = replicate n1, read-out: INS1e assay EC50 GLP-1R n1
[14] = replicate n2, read-out: INS1e assay EC50 GLP-1R n2

EC50 [1, 5] | EC50 [1, 6] | EC50 [1, 7] | EC50 [2, 8] | EC50 [2, 9] | EC50 [3, 10] | EC50 [3, 11] | EC50 [4, 12] | EC50 [4, 13] | EC50 [4, 14] | EC50 ([1]; first run (n1), cAMP activity, read-out: Primary assay EC50 GLP-1R n1) | EC50 ([1]; second run (n2), cAMP activity, read-out: Primary assay EC50 GLP-1R n2) | EC50 ([2]; first run (n1), cAMP activity of substituted and mono-lipidated peptides, read-out: Primary assay EC50 Gluc-R) | EC50 ([2]; second run (n2), cAMP activity, read-out: Primary assay EC50 Gluc-R) | EC50 ([3]; first run (n1), cAMP activity, read-out: Primary assay EC50 GIP-R) | EC50 ([3]; second run (n2), cAMP activity, read-out: Primary assay EC50 GIP-R) | SMILES
18 pM | 15.7 pM | 17 pM | ≥ 25 nM | ≥ 25.2 nM | ≥ 25 nM | ≥ 25.2 nM | 2080 pM | 2710 pM | 1450 pM | – | – | – | – | – | – | CC[C@H](C)[C@H](NC(=O)[C@](C)(Cc1ccccc1)NC(=O)[C@H](CCC(=O)O)NC(=O)[C@](C)(CCCCN)NC(=O)[C@H](C)NC(=O)[C@H](C)NC(=O)[C@H](CCC(=O)O)NC(=O)CNC(=O)[C@H](CCC(=O)O)NC(=O)[C@H](CC(C)C)NC(=O)[C@](C)(Cc1ccccc1)NC(=O)[C@H](CO)NC(=O)[C@](C)(CO)NC(=O)[C@H](CCCCNC(=O)COCCOCCNC(=O)COCCOCCNC(=O)CC[C@H](NC(=O)CCCCCCCCCCCCCCCCC(=O)O)C(=O)O)NC(=O)[C@H](CC(=O)O)NC(=O)[C@H](CO)NC(=O)[C@@H](NC(=O)[C@](C)(Cc1ccccc1)NC(=O)[C@H](CO)NC(=O)CNC(=O)[C@H](CCC(=O)O)NC(=O)C(C)(C)NC(=O)[C@@H](N)Cc1c[nH]cn1)[C@@H](C)O)C(=O)N[C@@H](C)C(=O)N[C@@](C)(Cc1ccccc1)C(=O)N[C@H](C(=O)N[C@H](C(=O)N[C@@](C)(CCCCN)C(=O)NCC(=O)NCC(N)=O)C(C)C)C(C)C [compound 119] (H-H[Aib]EGS[αMeF]TSDK([AEEA-AEEA-γGlu-C18 diacid])[αMeS]S[αMeF]LEGEAA[αMeK]E[αMeF]IA[αMeF]VV[αMeK]GG-NH2; N-terminus assumed)
3 pM | 2 pM | 2.5 pM | ≥ 27 nM | ≥ 27 nM | ≥ 27 nM | ≥ 27 nM | 195 pM | 151 pM | 238 pM | – | – | – | – | – | – | CCCCCCCCCCCCCCCC(=O)N[C@@H](CCC(=O)NCCCC[C@H](NC(=O)[C@H](CCC(=O)O)NC(=O)CNC(=O)[C@H](CCC(=O)O)NC(=O)[C@H](CC(C)C)NC(=O)[C@](C)(Cc1ccccc1)NC(=O)[C@H](CO)NC(=O)[C@](C)(CO)NC(=O)[C@@H](NC(=O)[C@H](CC(=O)O)NC(=O)[C@H](CO)NC(=O)[C@@H](NC(=O)[C@](C)(Cc1ccccc1)NC(=O)[C@H](CO)NC(=O)CNC(=O)[C@H](CCC(=O)O)NC(=O)C(C)(C)NC(=O)[C@@H](N)Cc1c[nH]cn1)[C@@H](C)O)C(C)C)C(=O)N[C@@H](C)C(=O)N[C@@](C)(CCCCN)C(=O)N[C@@H](CCC(=O)O)C(=O)N[C@@](C)(Cc1ccccc1)C(=O)N[C@H](C(=O)N[C@@H](C)C(=O)N[C@@](C)(Cc1ccccc1)C(=O)N[C@H](C(=O)N[C@H](C(=O)N[C@@](C)(CCCCN)C(=O)NCC(=O)NCC(N)=O)C(C)C)C(C)C)[C@@H](C)CC)C(=O)O [compound 82] (H-H[Aib]EGS[αMeF]TSDV[αMeS]S[αMeF]LEGEK([γGlu-Palmitoyl])A[αMeK]E[αMeF]IA[αMeF]VV[αMeK]GG-NH2; N-terminus assumed)
– | – | 27.9 pM | – | – | – | – | 1140 pM | 1380 pM | 890 pM | 41 pM | 15 pM | ≥ 26 nM | ≥ 26 nM | ≥ 26 nM | ≥ 26 nM | CC[C@H](C)[C@H](NC(=O)[C@](C)(Cc1ccccc1)NC(=O)[C@H](CCC(=O)O)NC(=O)[C@](C)(CCCCN)NC(=O)[C@H](C)NC(=O)[C@H](C)NC(=O)[C@H](CCC(=O)O)NC(=O)CNC(=O)[C@H](CCC(=O)O)NC(=O)[C@H](CC(C)C)NC(=O)[C@](C)(Cc1ccccc1)NC(=O)[C@H](CO)NC(=O)[C@](C)(CO)NC(=O)[C@@H](NC(=O)[C@H](CC(=O)O)NC(=O)[C@H](CO)NC(=O)[C@@H](NC(=O)[C@](C)(Cc1ccccc1)NC(=O)[C@H](CO)NC(=O)CNC(=O)[C@H](CCC(=O)O)NC(=O)C(C)(C)NC(=O)[C@@H](N)Cc1c[nH]cn1)[C@@H](C)O)C(C)C)C(=O)N[C@@H](C)C(=O)N[C@@](C)(Cc1ccccc1)C(=O)N[C@H](C(=O)N[C@H](C(=O)N[C@@H](CCCCNC(=O)COCCOCCNC(=O)COCCOCCNC(=O)CCCCCCCCCCCCCCCCC(=O)O)C(=O)NCC(=O)NCC(N)=O)C(C)C)C(C)C [compound 198]
